± gives the standard deviation of the averaged measurements.
Test system: HepaRG
Assay: LDH release cytotoxicity, % of total lysis control; higher = more cytotoxic
Settings: 48 h
Method in brief: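 The CytoTox-ONE kit was used to read LDH in 50 µL spent medium as resorufin fluorescence on a Tecan Safire, with 0.1% Triton X added to total lysis wells. Beforehand, single-lot HepaRG cells on collagen I-coated 96-well plates had been exposed in duplicate for 48 h to eight-point half-log series (top 100 µM) in serum-free induction medium containing 0.5% DMSO. Percent cytotoxicity was normalized against on-plate vehicle and total lysis controls and averaged over duplicates.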

Structure (SMILES)	LDH release cytotoxicity (0.03162 µM) [%]	LDH release cytotoxicity (0.1 µM) [%]	LDH release cytotoxicity (0.3162278 µM) [%]	LDH release cytotoxicity (1 µM) [%]	LDH release cytotoxicity (3.16228 µM) [%]	LDH release cytotoxicity (10 µM) [%]	LDH release cytotoxicity (31.6228 µM) [%]	LDH release cytotoxicity (100 µM) [%]	also measured
Oc1c(Cl)c(Cl)c(Cl)c(Cl)c1Cl [Pentachlorophenol]									LDH release cytotoxicity (0.0161276 µM): -0.227 ± 0.28%; LDH release cytotoxicity (0.051 µM): -1.03 ± 0.34%; LDH release cytotoxicity (0.161276 µM): -1.01 ± 0.69%; LDH release cytotoxicity (0.51 µM): -0.425 ± 0.32%; LDH release cytotoxicity (1.6127616 µM): 1.21 ± 0.41%; LDH release cytotoxicity (5.1 µM): 9 ± 4.7%; LDH release cytotoxicity (16.127616 µM): 41.1 ± 1.3%; LDH release cytotoxicity (51 µM): 40.65 ± 0.23%
CC12CCC(=O)C=C1CCC1C2C(O)CC2(C)C(C(=O)CO)CCC12 (configuration not stated) [Corticosterone]	-1.65 ± 0.13	-0.683 ± 1.9	0.128 ± 1.4	-1.19 ± 0.62	-0.76 ± 0.84	-0.609 ± 0.51	-0.274 ± 0.58	1.02 ± 0.92	
CCCCNC(=O)OCC#CI [3-Iodo-2-propynyl-N-butylcarbamate]									LDH release cytotoxicity (0.0301998 µM): 3.83 ± 0.91%; LDH release cytotoxicity (0.0955 µM): 4.17 ± 0.21%; LDH release cytotoxicity (0.301997 µM): 4.24 ± 0.97%; LDH release cytotoxicity (0.955 µM): 4.49 ± 0.11%; LDH release cytotoxicity (3.01998 µM): 4.53 ± 0.06%; LDH release cytotoxicity (9.55 µM): 4.22 ± 2%; LDH release cytotoxicity (30.199752 µM): 19.6 ± 1.1%; LDH release cytotoxicity (95.5 µM): 82.9 ± 2.8%
CCCCOC(=O)c1ccccc1 [Butyl benzoate]	-1.31 ± 0.5	-1.78 ± 0.16	-2.41 ± 0.59	-1.63 ± 0.22	-1.96 ± 0.76	-1.46 ± 0.092	-1.03 ± 0.64	0.0897 ± 0.95	
Cc1oc(-c2ccccc2)nc1CCOc1cccc2c1ccn2CCC(=O)O	-0.496 ± 0.49	-1.56 ± 0.14	-1.37 ± 1.4	-1.71 ± 0.068	-1.03 ± 0.61	-0.899 ± 0.13	-0.577 ± 0.44	45.3 ± 5.2	
N#Cc1c(Cl)cccc1Cl [Dichlobenil]	0.00697 ± 0.72	-0.347 ± 1.1	-1.05 ± 0.013	-1.65 ± 0.47	0.43 ± 1.9	0.582 ± 0.39	1.87 ± 0.054	1.99 ± 1.2	
O=c1ccc(=O)[nH][nH]1 [Maleic hydrazide]	-0.979 ± 0.52	-0.493 ± 0.19	-1.74 ± 0.22	-0.384 ± 0.92	-1.91 ± 0.55	-1.15 ± 0.52	0.124 ± 0.07	2.69 ± 1.4	
O=C(O)c1c(Cl)ccc2cc(Cl)cnc12 [Quinclorac]	-0.412 ± 0.14	-0.369 ± 0.069	-0.616 ± 0.54	-0.762 ± 0.34	-0.281 ± 0.41	-0.297 ± 0.37	0.046 ± 0.18	0.495 ± 0.038	
CCCOCC(=Nc1ccc(Cl)cc1C(F)(F)F)n1ccnc1 [Triflumizole]	-0.709 ± 0.69	-1.15 ± 0.39	-0.687 ± 0.077	-0.497 ± 0.18	-0.543 ± 1	-0.414 ± 0.008	-0.332 ± 0.2	0.335 ± 0.21	
CCCCOCN(C(=O)CCl)c1c(CC)cccc1CC [Butachlor]	0.674 ± 1.6	-0.43 ± 0.44	-0.96 ± 0.72	-0.4246 ± 0.0032	-0.143 ± 1.2	0.287 ± 2.1	0.713 ± 0.79	2.96 ± 1.9	
Cc1ccc2oc(CN(Cc3ccccc3)C(=O)Nc3c(F)cc(F)cc3F)c(-c3ccc(Cl)cc3)c2c1									LDH release cytotoxicity (0.0279862 µM): -1.59 ± 1.2%; LDH release cytotoxicity (0.0885 µM): -1.08 ± 0.43%; LDH release cytotoxicity (0.279862 µM): -1.56 ± 0.098%; LDH release cytotoxicity (0.885 µM): -1.22 ± 0.62%; LDH release cytotoxicity (2.7986157 µM): -1.44 ± 0.12%; LDH release cytotoxicity (8.85 µM): -1.09 ± 0.59%; LDH release cytotoxicity (27.9862 µM): -0.962 ± 0.17%; LDH release cytotoxicity (88.5 µM): 2.85 ± 1.8%
CCCCCCCCCCO [1-Decanol]	-1.47 ± 0.66	-2.45 ± 1	-1.67 ± 0.81	-2.76 ± 0.3	-1.79 ± 1	-1.21 ± 0.22	-0.773 ± 0.89	0.757 ± 0.16	
CCOc1ccc2c(n1)C(=O)C(C(=O)NCc1ccccc1)C=N2 (configuration not stated)	-1.14 ± 0.94	-1.5 ± 0.24	-0.931 ± 0.3	-1.34 ± 0.13	-0.884 ± 0.52	-0.792 ± 0.018	-1.83 ± 0.86	-0.163 ± 0.27	
CC(C)(C)c1csc(-c2cc3cc(OCc4ccccc4CC(=O)O)ccc3o2)n1		-2.14 ± 0.54		-2.18 ± 0.68	-2.37 ± 0.089	-3.649 ± 0.015	-2.7 ± 0.72	64 ± 7	LDH release cytotoxicity (0.031623 µM): 1.06 ± 0.28%; LDH release cytotoxicity (0.316228 µM): -2.66 ± 0.65%
